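These data come from cells grown in 96-well plates and exposed to compound for 48 hours at five concentrations. At the TGI there is no net growth.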
Experiments:
Assay in all cases: NCI-60 cell line screen, 48 h
SK-MEL-2 melanoma = test system: SK-MEL-2 melanoma
SK-OV-3 ovarian = test system: SK-OV-3 ovarian
NCI-H23 lung = test system: NCI-H23 lung
HOP-62 NSCLC = test system: HOP-62 NSCLC
K-562 leukemia = test system: K-562 leukemia
T-47D breast = test system: T-47D breast
IGROV1 ovarian = test system: IGROV1 ovarian
HT29 colon = test system: HT29 colon
NCI-H522 lung = test system: NCI-H522 lung
MOLT-4 leukemia = test system: MOLT-4 leukemia
UACC-257 melanoma = test system: UACC-257 melanoma
LOX IMVI melanoma = test system: LOX IMVI melanoma
RXF 393 renal = test system: RXF 393 renal
SK-MEL-28 melanoma = test system: SK-MEL-28 melanoma
BT-549 breast = test system: BT-549 breast
ACHN renal = test system: ACHN renal
CAKI-1 renal = test system: CAKI-1 renal
HS 578T breast = test system: HS 578T breast
A549 NSCLC = test system: A549 NSCLC
MDA-MB-231 breast = test system: MDA-MB-231 breast
MCF7 breast = test system: MCF7 breast
HCT-15 colon = test system: HCT-15 colon
HCC-2998 colon = test system: HCC-2998 colon
UACC-62 melanoma = test system: UACC-62 melanoma
HCT-116 colon = test system: HCT-116 colon
DU-145 prostate = test system: DU-145 prostate
NCI/ADR-RES ovarian = test system: NCI/ADR-RES ovarian
OVCAR-4 ovarian = test system: OVCAR-4 ovarian
SF-295 CNS = test system: SF-295 CNS
786-0 renal = test system: 786-0 renal
NCI-H460 lung = test system: NCI-H460 lung
SW-620 colon = test system: SW-620 colon
PC-3 prostate = test system: PC-3 prostate
SR leukemia = test system: SR leukemia
UO-31 renal = test system: UO-31 renal
SF-268 CNS = test system: SF-268 CNS
SNB-75 CNS = test system: SNB-75 CNS
OVCAR-5 ovarian = test system: OVCAR-5 ovarian
MDA-N = test system: MDA-N
SK-MEL-5 melanoma = test system: SK-MEL-5 melanoma
HL-60(TB) leukemia = test system: HL-60(TB) leukemia
OVCAR-8 ovarian = test system: OVCAR-8 ovarian
NCI-H226 lung = test system: NCI-H226 lung
TK-10 renal = test system: TK-10 renal
CCRF-CEM leukemia = test system: CCRF-CEM leukemia
MALME-3M melanoma = test system: MALME-3M melanoma
COLO 205 colon = test system: COLO 205 colon
U251 CNS = test system: U251 CNS
SF-539 CNS = test system: SF-539 CNS
SN12C renal = test system: SN12C renal
EKVX NSCLC = test system: EKVX NSCLC
M14 melanoma = test system: M14 melanoma
RPMI-8226 leukemia = test system: RPMI-8226 leukemia
SNB-19 CNS = test system: SNB-19 CNS
A498 renal = test system: A498 renal
MDA-MB-435 = test system: MDA-MB-435
HOP-92 NSCLC = test system: HOP-92 NSCLC
KM12 colon = test system: KM12 colon
OVCAR-3 ovarian = test system: OVCAR-3 ovarian

Measured: TGI

CP(C)(=S)P(C)(C)=S
> 100 µM: SK-MEL-2 melanoma | SK-OV-3 ovarian | NCI-H23 lung | HOP-62 NSCLC | K-562 leukemia | T-47D breast | IGROV1 ovarian | HT29 colon | NCI-H522 lung | MOLT-4 leukemia | UACC-257 melanoma | LOX IMVI melanoma | RXF 393 renal | SK-MEL-28 melanoma | BT-549 breast | ACHN renal | CAKI-1 renal | HS 578T breast | A549 NSCLC | MDA-MB-231 breast | MCF7 breast | HCT-15 colon | HCC-2998 colon | UACC-62 melanoma | HCT-116 colon | DU-145 prostate | NCI/ADR-RES ovarian | OVCAR-4 ovarian | SF-295 CNS | 786-0 renal | NCI-H460 lung | SW-620 colon | PC-3 prostate | SR leukemia | UO-31 renal | SF-268 CNS | SNB-75 CNS | OVCAR-5 ovarian | MDA-N | SK-MEL-5 melanoma | HL-60(TB) leukemia | OVCAR-8 ovarian | NCI-H226 lung | TK-10 renal | CCRF-CEM leukemia | MALME-3M melanoma | COLO 205 colon | U251 CNS | SF-539 CNS | SN12C renal | EKVX NSCLC | M14 melanoma | RPMI-8226 leukemia | SNB-19 CNS

Cc1nn(C)c2c1C(=O)N(C)CC(=O)N2C
> 100 µM: SK-OV-3 ovarian | NCI-H23 lung | HOP-62 NSCLC | K-562 leukemia | IGROV1 ovarian | A498 renal | HT29 colon | NCI-H522 lung | MOLT-4 leukemia | UACC-257 melanoma | MDA-MB-435 | RXF 393 renal | SK-MEL-28 melanoma | BT-549 breast | ACHN renal | CAKI-1 renal | HS 578T breast | A549 NSCLC | HOP-92 NSCLC | MCF7 breast | HCT-15 colon | HCC-2998 colon | UACC-62 melanoma | HCT-116 colon | DU-145 prostate | OVCAR-4 ovarian | SF-295 CNS | 786-0 renal | NCI-H460 lung | SW-620 colon | PC-3 prostate | SR leukemia | UO-31 renal | SF-268 CNS | SNB-75 CNS | OVCAR-5 ovarian | MDA-N | KM12 colon | SK-MEL-5 melanoma | HL-60(TB) leukemia | OVCAR-8 ovarian | TK-10 renal | OVCAR-3 ovarian | CCRF-CEM leukemia | MALME-3M melanoma | COLO 205 colon | U251 CNS | SF-539 CNS | SN12C renal | EKVX NSCLC | M14 melanoma | RPMI-8226 leukemia | SNB-19 CNS
